Data published in patent US10849982B2, “C3-carbon linked glutarimide degronimers for target protein degradation” (C4 Therapeutics, Inc., priority 2016, dated 2020).
Counter-ions that a name gives are not always drawn.

What was measured:
[1] = target: CRBN-DDB1 (Homo sapiens (Human), UniProt Q96SW2); assay: CRBN-DDB1 fluorescence polarization (FP) binding assay; settings: displacement of Thalidomide-Alexa Fluor or Pomalidomide-fluorescein probe
Experimental: Measuring compound ligand binding to CRBN-DDB1 was carried out using an established sensitive and quantitative in vitro fluorescence polarization (FP) based binding assay. […] Compounds were dispensed from serially diluted DMSO stock into black 384-well compatible fluorescence polarization plates using an Echo acoustic dispenser. Compound binding to CRBN-DDB1 was measured by displacement of either a (−)-Thalidomide-Alexa Fluor® or Pomalidomide-fluorescein conjugated probe dye. […] Matching control wells excluding CRBN-DDB1 were used to correct for background fluorescence. Plates were read on an Envision plate reader with appropriate FP filter sets. The corrected S (perpendicular) and P (parallel) values were used to calculate fluorescence polarization (FP) with the following equation: FP=1000*(S−G*P)/(S+G*P).

[2] = test system: MOLT4.1 (WT) cell line; assay: Cell viability analysis (CellTiter-Glo 2.0), MOLT4.1; assay type: cell-based; settings: MOLT4.1, 72 hr
Experimental: (§1) CellTiter-Glo® 2.0 Assay was purchased from Promega (Medison, Wis., USA). MOLT4.1 (WT) cell line was purchased from ATCC (Manassas, Va., USA) and MOLT4.2 (CRBN Knock Out) cell line was generated in house. Cell culture flasks and 384-well microplates were acquired from VWR (Radnor, Pa., USA).
(§2) MOLT4.1 and MOLT4.2 cell viability was determined based on quantification of ATP using CellTiter-Glo® 2.0 luminescent Assay kit, which signals the presence of metabolically-active cells. Briefly, MOLT4.1 and MOLT4.2 cells were seeded into 384-well plates at a cell density of 750 cells per well, the plates were kept at 37° C. with 5% CO2 overnight. On the following day, test compounds were added to the cells from a top concentration of 1 μM with 10 points, half log titration in duplicates. The cells treated in the absence of the test compound were the negative control and the cells treated in the absence of CellTiter-Glo® 2.0 were the positive control. At the same day of compound treatment, CellTiter-Glo® 2.0 was added to a plate with cells treated in the absence of the test compound to establish Cytostatic control value (Cro). Cells treated with the test compound were incubated for 72 hr. CellTiter-Glo reagent was then added to the cells and Luminescence was acquired on EnVision™ Multilabel Reader (PerkinElmer, Santa Clara, Calif., USA).
(§3) MOLT4.1 and MOLT4.2 cell viability was determined based on quantification of ATP using CellTiter-Glo® 2.0 luminescent Assay kit, which signals the presence of metabolically-active cells. Briefly, MOLT4.1 and MOLT4.2 cells were seeded into 384-well plates at a cell density of 750 cells per well, the plates were kept at 37° C. with 5% CO2 overnight. On the following day, test compounds were added to the cells from a top concentration of 1 μM with 10 points, half log titration in duplicates. […] CellTiter-Glo reagent was then added to the cells and Luminescence was acquired on EnVision™ Multilabel Reader (PerkinElmer, Santa Clara, Calif., USA).

[3] = test system: MOLT4.2 (CRBN Knock Out) cell line; assay: Cell viability analysis (CellTiter-Glo 2.0), MOLT4.2; assay type: cell-based; settings: MOLT4.2, 72 hr
Experimental: as §1, §2, §3

[4] = target: BRD4 BD1 (Homo sapiens (Human), UniProt O60885); assay: HiBit assay, BRD4 BD1 degradation analysis; assay type: cell-based; settings: BRD4_BD1, 293T.29 cells, 3 hr
Experimental: DMEM no-phenol red medium and fetal bovine serum (FBS) were purchased from Gibco (Grand Island, N.Y., USA). Nano-Glo® HiBiT Lytic Assay System was purchased from Promega (Medison, Wis., USA). 293T.29 (HiBiT-BRD4 BD1) cell line was generated in house, ectopically expressing BRD4 BD1 domain with HiBiT fusion tag. Cell culture flasks and 384-well microplates were acquired from VWR (Radnor, Pa., USA).
BRD4 BD1 degradation was determined based on quantification of luminescent signal using Nano-Glo® HiBiT Lytic Assay kit. Test compounds were added to the 384-well plate from a top concentration of 1 μM with 11 points, half log titration in quadruplicates. 293T.29 cells were added into 384-well plates at a cell density of 15000 cells per well. The plates were kept at 37° C. with 5% CO2 for 3 hours. The cells treated in the absence of the test compound were the negative control and the cells treated with 30 nM of a known BRD4 degrader were the positive control. After 3-hour incubation, Nano-Glo® HiBiT Lytic Assay reagents were added to the cells. Luminescence was acquired on EnVision™ Multilabel Reader (PerkinElmer, Santa Clara, Calif., USA).

CRBN-DDB1, sequence (Q96SW2 whole entry): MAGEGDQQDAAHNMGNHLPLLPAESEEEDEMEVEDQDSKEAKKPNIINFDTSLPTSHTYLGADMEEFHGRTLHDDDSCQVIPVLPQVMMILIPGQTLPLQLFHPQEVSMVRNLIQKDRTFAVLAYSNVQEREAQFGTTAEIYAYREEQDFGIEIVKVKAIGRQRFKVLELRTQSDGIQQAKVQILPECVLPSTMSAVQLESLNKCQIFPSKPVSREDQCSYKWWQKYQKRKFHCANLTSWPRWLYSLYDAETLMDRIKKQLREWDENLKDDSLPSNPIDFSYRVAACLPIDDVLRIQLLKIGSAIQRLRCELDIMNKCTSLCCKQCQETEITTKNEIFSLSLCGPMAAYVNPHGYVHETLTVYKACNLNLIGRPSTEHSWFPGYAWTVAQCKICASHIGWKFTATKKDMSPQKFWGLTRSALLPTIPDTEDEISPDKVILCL
CRBN-DDB1, sequence (Q16531 whole entry partner): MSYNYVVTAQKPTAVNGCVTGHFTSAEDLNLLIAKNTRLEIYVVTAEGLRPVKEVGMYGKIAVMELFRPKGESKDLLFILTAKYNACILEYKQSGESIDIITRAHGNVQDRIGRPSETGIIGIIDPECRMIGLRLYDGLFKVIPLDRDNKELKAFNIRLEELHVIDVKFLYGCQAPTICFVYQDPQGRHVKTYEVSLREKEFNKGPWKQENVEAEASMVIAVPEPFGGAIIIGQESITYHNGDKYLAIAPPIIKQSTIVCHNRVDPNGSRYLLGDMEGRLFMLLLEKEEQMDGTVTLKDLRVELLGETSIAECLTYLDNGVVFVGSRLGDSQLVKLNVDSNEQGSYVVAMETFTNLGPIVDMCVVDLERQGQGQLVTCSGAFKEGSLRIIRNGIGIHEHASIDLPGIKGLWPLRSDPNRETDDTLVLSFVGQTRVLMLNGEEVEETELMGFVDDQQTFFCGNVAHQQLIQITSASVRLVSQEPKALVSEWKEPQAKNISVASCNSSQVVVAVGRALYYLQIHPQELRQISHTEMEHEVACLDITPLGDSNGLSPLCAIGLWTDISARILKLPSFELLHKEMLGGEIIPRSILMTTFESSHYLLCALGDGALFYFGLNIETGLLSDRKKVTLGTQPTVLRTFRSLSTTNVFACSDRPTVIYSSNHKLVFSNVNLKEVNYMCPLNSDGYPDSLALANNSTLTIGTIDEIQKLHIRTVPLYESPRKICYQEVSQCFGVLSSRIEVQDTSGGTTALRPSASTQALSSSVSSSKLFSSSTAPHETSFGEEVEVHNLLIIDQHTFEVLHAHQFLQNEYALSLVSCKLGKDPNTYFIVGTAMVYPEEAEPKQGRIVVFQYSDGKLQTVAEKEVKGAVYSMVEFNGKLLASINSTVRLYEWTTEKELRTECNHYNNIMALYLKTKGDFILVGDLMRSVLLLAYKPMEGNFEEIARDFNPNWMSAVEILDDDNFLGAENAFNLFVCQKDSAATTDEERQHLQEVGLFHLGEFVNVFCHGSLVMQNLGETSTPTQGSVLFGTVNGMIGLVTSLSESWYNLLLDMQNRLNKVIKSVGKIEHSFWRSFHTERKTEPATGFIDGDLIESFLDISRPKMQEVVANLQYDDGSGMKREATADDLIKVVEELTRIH

Structure (SMILES) | Kd [1] [µM] | further results
O=C1CCC(CC(=O)Nc2ccccc2F)C(=O)N1 (stereo not shown) [Compound 23, 2-(2,6-Dioxo-piperidin-3-yl)-N-(2-fluoro-phenyl)-acetamide] | 50 to 100 | –
O=C1CCC(c2ccc3c(c2)CNC3)C(=O)N1 (stereo not shown) [Compound 55, 3-(Isoindolin-5-yl)piperidine-2,6-dione hydrochloride] | 50 to 100 | –
O=C1CCC(c2ncc3ccccn23)C(=O)N1 (stereo not shown) [Compound 28, 3-Imidazo[1,5-a]pyridin-3-yl-piperidine-2,6-dione] | < 10 | –
COc1ccccc1N(C)C(=O)C1CCC(=O)NC1=O (stereo not shown) [Compound 19] | > 100 | –
CC(C)(C)OC(=O)N1CCN(C(=O)CC2CCC(=O)NC2=O)CC1 (stereo not shown) [Compound 44, 4-[2-(2,6-Dioxo-piperidin-3-yl)-acetyl]-piperazine-1-carboxylic acid tert-butyl ester] | 50 to 100 | –
CN(C(=O)C1CCC(=O)NC1=O)c1ccccc1 (stereo not shown) [Compound 22] | > 100 | –
Cn1nc(C2CCC(=O)NC2=O)c2ccc(NC3CCN(C(=O)OC(C)(C)C)CC3)cc21 (stereo not shown) [Compound 52, tert-Butyl 4-((3-(2,6-dioxopiperidin-3-yl)-1-methyl-1H-indazol-6-yl)amino)piperidine-1-carboxylate] | < 10 | –
Cn1nc(-c2ccccc2)cc1C1CCC(=O)NC1=O (stereo not shown) [Compound 31, 3-(1-methyl-3-phenyl-1H-pyrazol-5-yl)piperidine-2,6-dione] | 50 to 100 | –
CC1(c2ccc(N)cc2)CCC(=O)NC1=O (stereo not shown) [Compound 10, 3-(4-Aminophenyl)-3-methylpiperidine-2,6-dione] | > 30 | –
Cc1sc2c(c1C)C(c1ccc(Cl)cc1)=N[C@@H](CC(=O)NCCCCCCCC(=O)Nc1ccc3c(C4CCC(=O)NC4=O)nn(C)c3c1)c1nnc(C)n1-2 (stereo partly drawn) [Degronimer 1, 8-(2-((S)-4-(4-chlorophenyl)-2,3,9-trimethyl-6H-thieno[3,2-f][1,2,4]triazolo[4,3-a][1,4]diazepin-6-yl)acetamido)-N-(3-(2,6-dioxopiperidin-3-yl)-1-methyl-1H-indazol-6-yl)octanamide] | – | Kd ([1]; Table 2): < 10 µM; Emax [2]: 0 to 50%; GI50 [2]: 0.1 to 1 µM; LD50 (nM) [2]: + (>1 μM = +); Emax [3]: > 50%; GI50 [3]: > 1 µM; LD50 (nM) [3]: + (>1 μM = +); DC50 [4]: > 0.83 µM
O=C1CCC(O)(C(=O)OCc2ccccc2)C(=O)N1 (stereo not shown) [Compound 60, benzyl 3-hydroxy-2,6-dioxopiperidine-3-carboxylate] | 10 to 50 | –
Cn1ccc(C2CCC(=O)NC2=O)n1 (stereo not shown) [Compound 33, 3-(1-methyl-1H-pyrazol-3-yl)piperidine-2,6-dione] | 10 to 50 | –
CC1(c2ccccc2)CCC(=O)NC1=O (stereo not shown) [Compound 8, 3-Methyl-3-phenylpiperidine-2,6-dione] | > 30 | –
O=C1CCC(CC(=O)N2CCNCC2)C(=O)N1 (stereo not shown) [Compound 45, 3-(2-Oxo-2-piperazin-1-yl-ethyl)-piperidine-2,6-dione hydrochloride Salt] | 50 to 100 | –
Cc1ccccc1C1CCC(=O)NC1=O (stereo not shown) [Compound 32, 3-(o-tolyl)piperidine-2,6-dione] | 10 to 50 | –
